Test results reported in patent US5470833A, “Endothelin antagonistic peptide derivatives” (Banyu Pharmaceutical Co., Ltd., priority 1990, dated 1995).
Like-named read-outs stand apart in the source and are kept apart here. Numbered stars: 1 amine (or outer) side, 2 acyl side, 3 side chain; on linkers, the order of the positions; unused ones are H or OH. Square brackets hold non-standard residues; d marks the D form. Peptide text beside a SMILES is read from it. * marks the point of attachment. ξ: configuration not given here. d(β3hF) = N[C@@H](CC(=O)O)Cc1ccccc1; ξ2Thi = NC(Cc1cccs1)C(=O)O; Boc = CC(C)(C)OC(=O)*; CO = O=C([*:1])[*:2]; NHtBu = CC(C)(C)N*; βAla = NCCC(=O)O; NEt2 = CCN(CC)*; NHiPr = CC(C)N*

Key:
[1] = molecular target: T1, endothelin receptor (membrane of smooth muscle tissue of porcine aorta) (Sus scrofa, UniProt Q29010); assay: Endothelin binding inhibition test (125I-endothelin-1, porcine aorta smooth muscle membrane); details: read-out: 125I-endothelin-1 binding inhibition
T1 construct: from tissue; host or cells: porcine aorta smooth muscle, membrane fraction
T1 sequence (Q29010 21-427): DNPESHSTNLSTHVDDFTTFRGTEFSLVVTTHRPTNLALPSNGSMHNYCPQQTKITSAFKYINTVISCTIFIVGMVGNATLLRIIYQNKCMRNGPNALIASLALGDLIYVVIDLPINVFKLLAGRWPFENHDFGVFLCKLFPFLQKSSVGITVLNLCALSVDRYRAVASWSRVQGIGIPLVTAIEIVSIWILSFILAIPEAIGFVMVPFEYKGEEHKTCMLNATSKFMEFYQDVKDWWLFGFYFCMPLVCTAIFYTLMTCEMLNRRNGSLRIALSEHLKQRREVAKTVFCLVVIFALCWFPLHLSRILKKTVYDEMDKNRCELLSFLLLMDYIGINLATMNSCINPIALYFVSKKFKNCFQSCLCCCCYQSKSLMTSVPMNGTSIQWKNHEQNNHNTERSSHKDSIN
Experimental: The smooth muscle tissue of porcine aorta was homogenized in a buffer solution of 10 mM MOPS, pH 7.4, at 4° C. by a polytron. To the homogenate, sucrose was added to a concentration of 20%, and the mixture was centrifuged at 1,000×g for 15 minutes, and the supernatant was further centrifuged at 10,000×g for 15 minutes. The supernatant thereof was further centrifuged at 90,000×g for 40 minutes. The membrane precipitate thereby obtained was suspended in a buffer solution of 5 mM HEPES/Tris, pH 7.4, at a concentration of 25 mg/ml.
Then, 16 μl of this membrane suspension was added to 340 μl of 50 mM Tris/HCl buffer, pH 7.4, containing 10 μM calcium chloride, 10 μM magnesium chloride, 0.1 mM PMSF, 1 μM pepstatin A, 2 μM leupeptin, 1 mM 1,10-phenanthroline and 0.1% bovine serum albumin. To this suspension, 4 μl of (A) endothelin-1 (for nonspecific binding; 0.2 μM as the final concentration), (B) buffer solution A (for total control binding), or (C) a test compound (1.1 μM or 10 μM as the final concentration),was added. Further, to each suspension, 40 μl of ^125 I-endothelin-1 (12000-18000 cpm) was added. These mixtures were incubated at 25° C. for 4 hours, then subjected to filtration on a glass filter GF/C and then washed with 5 mM HEPES/Tris, pH 7.4, containing 0.3% bovine serum albumin. Then, the radioactivity trapped by the glass filter was measured, and the ^125 I-endothelin-1 binding inhibition D (%) at 1.1 μM or 10 μM of the test compound was determined by the following equation. [formula] Each test was performed in triplicate.
The test compounds are indicated by Compound Nos.

[2] = tested on: isolated porcine coronary artery; assay: Activities against endothelin-induced contraction of isolated porcine coronary arteries; design: species or system pig; details: for shift of the concentration-response curve of endothelin-1: added 20 minutes prior to endothelin-1
Experimental: The coronary artery of pig was extracted, and a spiral preparation having a width of 1 mm and a length of 10 mm was prepared therefrom.
Endothelin-1 was added into the organ bath in a cumulatively increasing manner, whereby the influence of a compound of the present invention to the concentration-response curve for endothelin-1 was examined. The compound was added into the organ bath 20 minutes prior to the addition of endothelin-1.

[3] = tested on: isolated guinea pig trachea; assay: Activities against endothelin-induced contraction of isolated guinea pig trachea; details: 6 μM compound; for shift of the concentration-response curve for endothelin-1: added 20 minutes prior to endothelin-1
Experimental: The trachea of a guinea pig was extracted, and the trachea was cut into rings to afford a preparation.
Endothelin-1 was added into the organ bath in a cumulatively increasing manner, and the influence of a compound of the present invention to the concentration-response curve for endothelin was examined. The compound was added into the organ bath 20 minutes prior to the addition of endothelin-1.

[4] = tested on: isolated rat heart; assay: Effects on the increased perfusion pressure induced by endothelin in isolated rat heart (Langendorff)
Experimental: The heart of a male Sprague Dohrie (SD) rat was extracted, and the perfusion pressure was measured and recorded according to the Langendorff's method.
Endothelin-1 was cumulatively added to the perfusate, whereby the influence of a compound of the present invention to the concentration-response curve for endothelin-1 was examined. The compound which was dissolved in the perfusate had been infused from 20 minutes prior to the addition of endothelin-1 till just after finishing measurement of the concentration-response curve for endothelin-1.

Q: `CC(C)C[C@H](NC(=O)N1CCCCCC1)C(=O)N[C@H](Cc1c[nH]c2ccccc12)C(=O)NCCC(=O)O` [Compound 93] was tested. Which inhibition at 1.1 µM ([1]; 1.1 μM test compound (no mark)) did it give?
A: 78%

Q: What about the “maximum response to endothelin-1” value ([2]; 6 μM compound) of the same compound?
A: did not affect the maximum response

Q: What about the “shift of the concentration-response curve of endothelin-1” value ([2]; 6 μM compound) of the same compound?
A: remarkably shifted the concentration-response curves of endothelin-1 to the right

Q: What about the “maximum response to endothelin-1” value [3] of the same compound?
A: did not affect the maximum response

Q: And the “shift of the concentration-response curve for endothelin-1” value [3]?
A: remarkably shifted the concentration-response curves for endothelin-1 to the right

Q: How did the inhibition at 1.1 µM ([1]; 1.1 μM test compound (no mark)) turn out when `CC(C)C[C@H](NC(=O)NC(C)(C)C)C(=O)N[C@H](Cc1c[nH]c2ccccc12)C(=O)N[C@H](Cc1c[nH]c2ccccc12)C(=O)O` [Compound 81] ({NHtBu-CO}-Leu-[dW]-[dW]-OH) was run?
A: 84%

Q: Which results are given for `CC(C)C[C@H](NC(=O)N1CCCCCC1)C(=O)N[C@H](Cc1c[nH]c2ccccc12)C(=O)N[C@H](Cc1c[nH]c2ccccc12)C(=O)O` [Compound 50]?
A: inhibition at 1.1 µM [1]: 87%; maximum response to endothelin-1 ([2]; 2 μM compound): did not affect the maximum response; shift of the concentration-response curve of endothelin-1 ([2]; 2 μM compound): remarkably shifted the concentration-response curves of endothelin-1 to the right; maximum response to endothelin-1 [3]: did not affect the maximum response; shift of the concentration-response curve for endothelin-1 [3]: remarkably shifted the concentration-response curves for endothelin-1 to the right; maximum response to endothelin-1 (perfusion pressure) ([4]; 1 μM compound): did not affect the maximum response; shift of the concentration-response curve for endothelin-1 (perfusion pressure) ([4]; 1 μM compound in perfusate from 20 minutes prior to endothelin-1): moved the concentration-response curve for endothelin-1to the right

Q: How did the inhibition at 10 µM ([1]; 10 μM test compound (marked *)) turn out when `CC(C)C[C@H](NC(=O)OC(C)(C)C)C(=O)N[C@H](Cc1c[nH]c2ccccc12)C(=O)NNCC(=O)O` [Compound 148] was run?
A: 82%

Q: For `CC(C)C[C@H](NC(=O)N(C)c1ccccc1)C(=O)N[C@H](Cc1c[nH]c2ccccc12)C(=O)NCCC(=O)O` [Compound 76], which inhibition at 1.1 µM ([1]; 1.1 μM test compound (no mark)) is on record?
A: 52%

Q: For `CC(C)C[C@H](NC(=O)OC(C)(C)C)C(=O)N[C@H](Cc1c[nH]c2ccccc12)C(=O)N[C@@H](CC(=O)O)Cc1ccccc1` [Compound 20] (Boc-Leu-[dW]-[d(β3hF)]-OH), which inhibition at 1.1 µM ([1]; 1.1 μM test compound (no mark)) is on record?
A: 44%

Q: With `CC(C)C[C@H](NC(=O)NC(C)C)C(=O)N[C@H](Cc1c[nH]c2ccccc12)C(=O)NCC(=O)O` [Compound 89] ({NHiPr-CO}-Leu-[dW]-Gly-OH) as the compound, how does the inhibition at 10 µM ([1]; 10 μM test compound (marked *)) read?
A: 55%

Q: For `CC(C)C[C@H](NC(=O)OC(C)C)C(=O)N[C@H](Cc1c[nH]c2ccccc12)C(=O)NCCC(=O)O` [Compound 71], which inhibition at 1.1 µM ([1]; 1.1 μM test compound (no mark)) is on record?
A: 29%

Q: For `CC(C)C[C@H](NC(=O)C=C1SC=CS1)C(=O)N[C@H](Cc1c[nH]c2ccccc12)C(=O)NCCC(=O)O` [Compound 67], which inhibition at 1.1 µM ([1]; 1.1 μM test compound (no mark)) is on record?
A: 63%

Q: Which inhibition at 1.1 µM ([1]; 1.1 μM test compound (no mark)) does the source give for `CC(C)C[C@H](NC(=O)OC(C)(C)C)C(=O)N[C@H](Cc1c[nH]c2ccccc12)C(=O)N[C@H](C)C(=O)O` [Compound 41] (Boc-Leu-[dW]-[dA]-OH) here?
A: 65%

Q: How did the inhibition at 1.1 µM ([1]; 1.1 μM test compound (no mark)) turn out when `CCN(CC)C(=O)N[C@@H](CC(C)C)C(=O)N[C@H](Cc1c[nH]c2ccccc12)C(=O)NCCC(=O)O` [Compound 77] ({NEt2-CO}-Leu-[dW]-[βAla]-OH) was run?
A: 47%

Q: `CC(C)C[C@H](NC(=O)N1CCCCCC1)C(=O)N[C@H](Cc1c[nH]c2ccccc12)C(=O)N[C@H](Cc1c[nH]cn1)C(=O)O` [Compound 48] was tested. Which inhibition at 1.1 µM ([1]; 1.1 μM test compound (no mark)) did it give?
A: 82%

Q: How did the inhibition at 1.1 µM ([1]; 1.1 μM test compound (no mark)) turn out when `CC(C)C[C@H](NC(=O)OC(C)(C)C)C(=O)N[C@H](Cc1c[nH]c2ccccc12)C(=O)NC(Cc1cccs1)C(=O)O` (stereo partly drawn) [Compound 15] (Boc-Leu-[dW]-[ξ2Thi]-OH) was run?
A: 71%

Q: For `CC(C)C[C@H](NC(=O)OC(C)(C)C)C(=O)N[C@H](Cc1c[nH]c2ccccc12)C(=O)NN(CC(=O)O)Cc1ccccc1` [Compound 149], which inhibition at 10 µM ([1]; 10 μM test compound (marked *)) is on record?
A: 58%

Q: `CC(C)C[C@H](NC(=O)N1CCCCCC1)C(=O)N[C@H](Cc1c[nH]c2ccccc12)C(=O)NN1CCC[C@H]1C(=O)O` [Compound 164] was tested. Which inhibition at 1.1 µM ([1]; 1.1 μM test compound (no mark)) did it give?
A: 71%

Q: For `Cc1nc[nH]c1CSC[C@@H](NC(=O)[C@@H](Cc1c[nH]c2ccccc12)NC(=O)[C@H](CC(C)C)NC(=O)OC(C)(C)C)C(=O)O` [Compound 22], which inhibition at 10 µM ([1]; 10 μM test compound (marked *)) is on record?
A: 36%

Q: `CC(C)C[C@H](NC(=O)N1CCCC1(C)C)C(=O)N[C@H](Cc1c[nH]c2ccccc12)C(=O)N[C@H](Cc1c[nH]c2ccccc12)C(=O)O` [Compound 173] was tested. Which inhibition at 1.1 µM ([1]; 1.1 μM test compound (no mark)) did it give?
A: 84%

Q: How did the inhibition at 1.1 µM ([1]; 1.1 μM test compound (no mark)) turn out when `CC(C)C[C@H](NC(=O)N1CCCCCC1)C(=O)N[C@H](Cc1c[nH]c2ccccc12)C(=O)NCCC(=O)N(C)C` [Compound 136] was run?
A: 32%

Q: How did the inhibition at 10 µM [1] turn out when `COP(=O)(OC)n1cc(C[C@@H](NC(=O)[C@H](CC(C)C)NC(=O)N2CCCCCC2)C(=O)N[C@H](Cc2c[nH]c3ccccc23)C(=O)O)c2ccccc21` [Compound 191] was run?
A: 74%

Q: For `CC(C)C[C@H](NC(=O)OC(C)(C)C)C(=O)N[C@H](Cc1c[nH]c2ccccc12)C(=O)N[C@H](CCC(N)=O)C(=O)O` [Compound 10] (Boc-Leu-[dW]-[dQ]-OH), which inhibition at 1.1 µM ([1]; 1.1 μM test compound (no mark)) is on record?
A: 32%
